Drawing on patent publication US20250353841A1 (BIOGEN MA INC., priority 2022, published 2025), this text covers IC50 for 34 molecules.

Each structure is given as a SMILES string.

For this test, the system named is mutant Huntington (HTT) protein. Put plainly: HTT Mutant HTRF iPSC assay (mHTT protein lowering). The test is classed as cell-based. The following applies: human iPSC derived from a HTT patient with a poly-Q49 mutation. (In TR-FRET formats the signal depends on donor and acceptor labels being close together.)

What is called IC50 is the concentration that gives 50% inhibition. Low readings indicate greater potency, high ones weaker potency. In turn, `Cc1cn2nc(-c3cc(F)c4nn(C5CCN(CC6CC6)CC5)cc4c3)cc2c(C)n1` [Compound 372, 2-(2-(1-(cyclopropylmethyl)piperidin-4-yl)-7-fluoro-2H-indazol-5-yl)-4,6-dimethylpyrazolo[1,5-a]pyrazine] showed an IC50 below 100 nM.

In turn, `CCN1CCC(c2cn3cc(-c4ccc5nn(C)cc5c4)cc(F)c3n2)CC1` [Compound 7, 5-(2-(1-ethylpiperidin-4-yl)-8-fluoroimidazo[1,2-a]pyridin-6-yl)-2-methyl-2H-indazole] registered an IC50 of 1000 to 9000 nM. With `Cc1cn2nc(-c3cc(F)c4nc([C@H]5CC[C@]6(CCNC6)CC5)nn4c3)cc(C)c2n1` [Compound 451, (5s,8s)-8-(6-(2,8-dimethylimidazo[1,2-b]pyridazin-6-yl)-8-fluoro-[1,2,4]triazolo[1,5-a]pyridin-2-yl)-2-azaspiro[4.5]decane] the figure was 100 to 1000 nM; with `[2H]C1(N2CCC(c3cn4cc(-c5cc(C)c6nc(C)cn6n5)cc(F)c4n3)CC2)CC1` [Compound 207, 6-(2-(1-(cyclopropyl-1-d)piperidin-4-yl)-8-fluoroimidazo[1,2-a]pyridin-6-yl)-2,8-dimethylimidazo[1,2-b]pyridazine], below 100 nM. With `Cc1cn2nc(-c3cn4cc(C5CCNCC5)cc(F)c4n3)cc(C)c2n1` [Compound 131, 6-(8-fluoro-6-(piperidin-4-yl)imidazo[1,2-a]pyridin-2-yl)-2,8-dimethylimidazo[1,2-b]pyridazine] the figure was 100 to 1000 nM; with `CCC(=O)N1CCC(c2cn3cc(-c4cc(C)c5nc(C)cn5n4)cc(F)c3n2)CC1` [Compound 120, 1-[4-[6-(2,8-dimethylimidazo[1,2-b]pyridazin-6-yl)-8-fluoro-imidazo[1,2-a]pyridin-2-yl]-1-piperidyl]propan-1-one], 100 to 1000 nM; with `Cc1cc(-c2cc(F)c3nc(C4CCNCC4)oc3c2)cc2cn(C)nc12` [Compound 157, 6-(2,7-dimethyl-2H-indazol-5-yl)-4-fluoro-2-(piperidin-4-yl)benzo[d]oxazole], 100 to 1000 nM.

For `Cc1cn2nc(-c3cc(F)c4nc([C@@H]5CCCNC5)cn4c3)cc(C)c2n1` (single isomer, unassigned) [Compound 118], the IC50 was below 100 nM. The same measure for `CC(C)N1CC(C(=O)Nc2cn3cc(-c4cc(F)c5nn(C)cc5c4)cc(F)c3n2)C1` [Compound 291, N-(8-fluoro-6-(7-fluoro-2-methyl-2H-indazol-5-yl)imidazo[1,2-a]pyridin-2-yl)-1-isopropylazetidine-3-carboxamide]: 100 to 1000 nM; for `Cc1cn2nc(-c3cc(F)c4nc(NC(=O)C5CNC5)cn4c3)cc(C)c2n1` [Compound 294, N-[6-(2,8-dimethylimidazo[1,2-b]pyridazin-6-yl)-8-fluoro-imidazo[1,2-a]pyridin-2-yl]azetidine-3-carboxamide]: below 100 nM; for `Cc1cn2nc(-c3cc(F)c4nc([C@H]5CC[C@@]6(CCNC6)CC5)nn4c3)cc(C)c2n1` [Compound 452, (5r,8r)-8-(6-(2,8-dimethylimidazo[1,2-b]pyridazin-6-yl)-8-fluoro-[1,2,4]triazolo[1,5-a]pyridin-2-yl)-2-azaspiro[4.5]decane]: 100 to 1000 nM. With `Cc1cc2nc(-c3cc(F)c4nn(C5CCN(C)CC5)cc4c3)cc(C)n2n1` [Compound 360, 5-(7-fluoro-2-(1-methylpiperidin-4-yl)-2H-indazol-5-yl)-2,7-dimethylpyrazolo[1,5-a]pyrimidine] the figure was 100 to 1000 nM. With `Cc1cn2nc(-c3cc(F)c4nc(C5CCN(C6CCC6)CC5)nn4c3)cc(C)c2n1` [Compound 437, 2-(1-cyclobutylpiperidin-4-yl)-6-(2,8-dimethylimidazo[1,2-b]pyridazin-6-yl)-8-fluoro-[1,2,4]triazolo[1,5-a]pyridine] the figure was 100 to 1000 nM. `CCc1cc(-c2cc(F)c3nc(C4CCNCC4)cn3c2)cn2cc(C)nc12` [Compound 103, 8-ethyl-8′-fluoro-2-methyl-2′-(piperidin-4-yl)-6,6′-biimidazo[1,2-a]pyridine]: the IC50 fell in the range of 100 to 1000 nM.

The molecule `Cc1cn2nc(-c3cc(F)c4nc(C(=O)N(C)C5CCN(C)CC5)cn4c3)cc(C)c2n1` [Compound 332, 6-(2,8-dimethylimidazo[1,2-b]pyridazin-6-yl)-8-fluoro-N-methyl-N-(1-methylpiperidin-4-yl)imidazo[1,2-a]pyridine-2-carboxamide] showed an IC50 below 100 nM. In the case of `Cc1cn2nc(-c3cc(F)c4[nH]c(C5CCN(C6CCC6)CC5)nc4c3)cc(C)c2n1` [Compound 426, 6-(2-(1-cyclobutylpiperidin-4-yl)-7-fluoro-1H-benzo[d]imidazol-5-yl)-2,8-dimethylimidazo[1,2-b]pyridazine], the IC50 is below 100 nM. The same measure for `Cn1cc2cc(-c3cc(F)c4nc(C5CNC5)cn4c3)cc(F)c2n1` [Compound 23, 5-(2-(azetidin-3-yl)-8-fluoroimidazo[1,2-a]pyridin-6-yl)-7-fluoro-2-methyl-2H-indazole]: 1000 to 9000 nM; for `Cc1cn2cc(-c3cc(F)c4oc(N(C)CCN5CCOCC5)nc4c3)cc(F)c2n1` [Compound 532, 7-fluoro-5-(8-fluoro-2-methylimidazo[1,2-a]pyridin-6-yl)-N-methyl-N-(2-morpholinoethyl)benzo [d]oxazol-2-amine]: 1000 to 9000 nM.

With `Cc1cn2nc(-c3cc(F)c4nc(NC(=O)C5CN(C6COC6)C5)cn4c3)cc(C)c2n1` [Compound 254, N-(6-(2,8-dimethylimidazo[1,2-b]pyridazin-6-yl)-8-fluoroimidazo[1,2-a]pyridin-2-yl)-1-(oxetan-3-yl)azetidine-3-carboxamide], the IC50 was below 100 nM. With `Cc1cn2nc(-c3cc(F)c4nc(C5CCC(C)(C)NC5)nn4c3)cc(C)c2n1` (stereo not shown) [Compound 445, 6-(2,8-dimethylimidazo[1,2-b]pyridazin-6-yl)-2-(6,6-dimethylpiperidin-3-yl)-8-fluoro-[1,2,4]triazolo[1,5-a]pyridine] the figure was 100 to 1000 nM. For the molecule `CCN1CCC(n2nc3cc(-c4cc(C(F)F)c5nc(C)cn5n4)cc(F)c3n2)CC1` [Compound 377, 6-(8-(difluoromethyl)-2-methylimidazo[1,2-b]pyridazin-6-yl)-2-(1-ethylpiperidin-4-yl)-4-fluoro-2H-benzo[d][1,2,3]triazole], the IC50 lay within 100 to 1000 nM. As for `CCN1CC[C@H](N(C)c2nc3c(F)cc(-c4cc(C)c5nc(C)cn5n4)cc3o2)C[C@@H]1C` (stereo in doubt) [Compound 486, rel-6-(2,8-dimethylimidazo[1,2-b]pyridazin-6-yl)-N-((2R,4R)-1-ethyl-2-methylpiperidin-4-yl)-4-fluoro-N-methylbenzo[d]oxazol-2-amine], the IC50 was below 100 nM. Take `Cc1cn2nc(-c3cc(F)c4nc(NC(=O)C5(C)CNC5)cn4c3)cc(C)c2n1` [Compound 258, N-(6-(2,8-dimethylimidazo[1,2-b]pyridazin-6-yl)-8-fluoroimidazo[1,2-a]pyridin-2-yl)-3-methylazetidine-3-carboxamide]: the IC50 is below 100 nM. The same measure for `Cn1cc2cc(-c3cc(F)c4nc(C56CC(N)(CO5)C6)cn4c3)cc(F)c2n1` [Compound 68]: 1000 to 9000 nM.

For the molecule `Fc1cc(-c2ccn3nc(Br)cc3n2)cn2cc(C3CCNCC3)nc12` [Compound 199, 2-bromo-5-(8-fluoro-2-(piperidin-4-yl)imidazo[1,2-a]pyridin-6-yl)pyrazolo[1,5-a]pyrimidine], the IC50 is 100 to 1000 nM. The same measure for `Cc1cn2nc(-c3cc(F)c4nc(CC5CCN(C)CC5)nn4c3)cc(C)c2n1` [Compound 448, 6-(2,8-dimethylimidazo[1,2-b]pyridazin-6-yl)-8-fluoro-2-((1-methylpiperidin-4-yl)methyl)-[1,2,4]triazolo[1,5-a]pyridine]: 100 to 1000 nM.

For `Cc1nc2ccc(-c3cc(F)c4nc([C@H]5[C@@H]6CN(C)C[C@@H]65)cn4c3)nn2n1` [Compound 219, 6-(8-fluoro-2-((1R,5S,6r)-3-methyl-3-azabicyclo[3.1.0]hexan-6-yl)imidazo[1,2-a]pyridin-6-yl)-2-methyl-[1,2,4]triazolo[1,5-b]pyridazine], the IC50 lay within 100 to 1000 nM. With `Cc1cn2nc(-c3cc(F)c4nc([C@H]5C[C@H](CN(C)C)C5)cn4c3)cc(C)c2n1` [Compound 181, 1-((1r,3r)-3-(6-(2,8-dimethylimidazo[1,2-b]pyridazin-6-yl)-8-fluoroimidazo[1,2-a]pyridin-2-yl)cyclobutyl)-N,N-dimethylmethanamine] the figure was below 100 nM; with `Cc1cc(-c2cc(F)c3nc(C4CCNCC4)cn3c2)nn2ccnc12` [Compound 102, 6-(8-fluoro-2-(piperidin-4-yl)imidazo[1,2-a]pyridin-6-yl)-8-methylimidazo[1,2-b]pyridazine], 100 to 1000 nM; with `Cc1cc2nc(-c3cc(F)c4nc([C@H]5[C@@H]6CN(C)C[C@@H]65)cn4c3)cc(C)n2n1` [Compound 223, 5-(8-fluoro-2-((1R,5S,6r)-3-methyl-3-azabicyclo[3.1.0]hexan-6-yl)imidazo[1,2-a]pyridin-6-yl)-2,7-dimethylpyrazolo[1,5-a]pyrimidine], 100 to 1000 nM.

The molecule `Cn1cc2cc(-c3cc(F)c4nn(C5CCNCC5)nc4c3)cc(F)c2n1` [Compound 138, 4-fluoro-6-(7-fluoro-2-methyl-2H-indazol-5-yl)-2-(piperidin-4-yl)-2H-benzo[d][1,2,3]triazole] showed an IC50 of 100 to 1000 nM. With `Cc1cn2nc(-c3cc(F)c4nc([C@H]5C[C@@]6(CCN(C)C6)C5)cn4c3)cc(C)c2n1` [Compound 202, 6-(8-fluoro-2-((2r,4r)-6-methyl-6-azaspiro[3.4]octan-2-yl)imidazo[1,2-a]pyridin-6-yl)-2,8-dimethylimidazo[1,2-b]pyridazine] the figure was below 100 nM; with `Cc1cn2nc(-c3cc(F)c4nc(NC(=O)C5CCNC56CC6)nn4c3)cc(C)c2n1` (stereo not shown) [Compound 323, N-(6-(2,8-dimethylimidazo[1,2-b]pyridazin-6-yl)-8-fluoro-[1,2,4]triazolo[1,5-a]pyridin-2-yl)-4-azaspiro[2.4]heptane-7-carboxamide], 100 to 1000 nM; with `Cc1cn2nc(-c3cc(F)c4nc(NC(=O)C5CC6CC5CN6)cn4c3)cc(C)c2n1` (racemic) [Compound 280], below 100 nM.
